Source: publication PMC8726015 (ACS chemical biology, 2021)

Experiments:
[1] = molecular target: T1, human pantothenate kinase hPANK1β (Homo sapiens, UniProt Q8TE04); experiment: PK/LDH-coupled kinase assay, substrate turnover; type: biochemical; conditions: read-out: KM or K0.5
T1 sequence (Q8TE04 1-373 isoform Q8TE04-2): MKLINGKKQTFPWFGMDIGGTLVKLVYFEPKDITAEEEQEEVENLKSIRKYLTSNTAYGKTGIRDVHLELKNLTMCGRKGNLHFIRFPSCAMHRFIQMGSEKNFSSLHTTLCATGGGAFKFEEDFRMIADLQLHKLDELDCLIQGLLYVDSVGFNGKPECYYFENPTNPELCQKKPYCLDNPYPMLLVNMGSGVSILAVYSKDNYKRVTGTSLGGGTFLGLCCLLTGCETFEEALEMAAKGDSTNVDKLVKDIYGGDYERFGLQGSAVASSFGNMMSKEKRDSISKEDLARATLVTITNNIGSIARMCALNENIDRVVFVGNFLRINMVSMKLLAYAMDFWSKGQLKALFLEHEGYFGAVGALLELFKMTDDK

[2] = molecular target: T2, fruit fly phosphopantothenoylcysteine synthetase (dPPCS) (Drosophila melanogaster, UniProt Q7KN99); experiment: pyrophosphate-coupled NADH oxidation enzyme assay; type: biochemical
T2 sequence (Q7KN99 1-313): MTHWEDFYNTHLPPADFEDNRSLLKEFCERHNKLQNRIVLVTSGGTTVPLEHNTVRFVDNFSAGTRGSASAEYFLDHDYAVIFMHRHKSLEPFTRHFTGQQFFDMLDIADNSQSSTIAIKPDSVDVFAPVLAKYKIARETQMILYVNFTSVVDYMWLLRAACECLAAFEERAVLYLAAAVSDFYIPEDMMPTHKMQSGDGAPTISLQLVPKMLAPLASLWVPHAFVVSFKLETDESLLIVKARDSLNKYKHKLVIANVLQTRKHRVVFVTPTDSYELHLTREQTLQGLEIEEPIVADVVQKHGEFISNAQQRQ

[3] = molecular target: T3, human phosphopantothenoylcysteine synthetase (hPPCS) (Homo sapiens, UniProt Q9HAB8); experiment: X-ray crystal structure at […] Å; type: biochemical
[4] = molecular target: T3, human phosphopantothenoylcysteine synthetase (hPPCS); experiment: X-ray crystal structure at […] Å; type: binding

T3 sequence (Q9HAB8 2-311): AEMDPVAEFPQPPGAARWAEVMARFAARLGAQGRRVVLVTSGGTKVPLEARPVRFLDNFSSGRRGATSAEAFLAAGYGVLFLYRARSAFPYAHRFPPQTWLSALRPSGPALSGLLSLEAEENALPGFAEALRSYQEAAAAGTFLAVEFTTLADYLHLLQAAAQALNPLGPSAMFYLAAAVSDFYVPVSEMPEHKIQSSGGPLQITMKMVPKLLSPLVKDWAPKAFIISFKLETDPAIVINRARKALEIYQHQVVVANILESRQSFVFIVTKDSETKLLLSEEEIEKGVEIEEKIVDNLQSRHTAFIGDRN

Structure (SMILES)	Km [1] [µM]	also measured
CC(C)(CO)[C@@H](O)C(=O)NCCCC(=O)O [compound 1, HoPan]	12.1 ± 1.9	–
CC(C)(CO)[C@@H](O)C(=O)NCCC(=O)NCCS [compound 6, PantSH]	9.85 ± 1.17	–
CC(C)(COP(=O)(O)O)[C@@H](O)C(=O)NCCCC(=O)O [compound 2, P-HoPan]	–	Ki [2]: 20.9 ± 1.1 µM; Ki [3]: 13.4 ± 3.6 µM
CC(C)(CO)[C@@H](O)C(=O)NCCC(=O)O [compound 3, Pan]	6.2 ± 0.88	–
Nc1ncnc2c1ncn2[C@@H]1O[C@H](CO[P@](=O)(O)O[P@](=O)(O)NP(=O)(O)O)[C@@H](O)[C@H]1O [AMPPNP]	–	X-ray crystal structure at 1.9 Å (ternary complex with P-HoPan) [4]: electron densities for the co-factor AMPPNP and the ligand P-HoPan observed in both monomers
